In PubChem BioAssay AID624333 (NMMLSC, 2012):
Calls of active or inactive are those of the source.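 How the source made its calls: active means inhibition of binding above 0%; inactive means the rest.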

What follows are compounds tested on anti-Dsg3 scFv antibody binding to human desmoglein-3 (assay: inhibitors of pemphigus antibody-Dsg3 interaction – biochemical, ELISA, orthogonal assay for pemphigus antibody inhibitor project, confirmation (AID 624333)). Settings: OD, at 200 µM, stronger effect = higher value.

Structure (SMILES) | inhibition of binding
CC(=O)Nc1ccc(-c2cc(-c3ccccc3)nc(-c3ccccc3)n2)cc1 | 5%
CSc1ccccc1OCc1cc(C(=O)NCCC2=CCCCC2)no1 | -14% (inactive)
CCc1ccc(OCC(=O)Nc2ccc(N3CCN(C(=O)c4ccccc4)CC3)cc2)cc1 | -5% (inactive)
NS(=O)(=O)c1ccc(NC(=O)c2cc(-c3cccs3)nc3ccccc23)cc1 | -18% (inactive)
COc1ccccc1NC(=O)Cn1nnc(-c2ccccc2NC(=O)c2cc3ccccc3oc2=O)n1 | -32% (inactive)
Cc1c(C(=O)Nc2ccc(OCc3ccccc3)cc2)cccc1[N+](=O)[O-] | -33% (inactive)
OCc1cn(-c2ccccc2)nc1-c1ccc(-c2nn(-c3ccccc3)cc2CO)cc1 | -14% (inactive)
CC(C)OC(=O)CSc1nc2c(cc1C#N)CCCCC2 | -2% (inactive)
Cc1ccc(C(C)C)c(OCC(=O)Nc2ccc(N3CCN(S(C)(=O)=O)CC3)cc2)c1 | -19% (inactive)

Continued, values first:

inhibition of binding | Structure (SMILES)
8% | Cc1cc(SCC(=O)Nc2ccc3[nH]c(=O)[nH]c3c2)nc2ccccc12
-2% (inactive) | COc1ccc(OC)c(NC(=O)c2nc(-c3ccccc3)oc2C)c1
0% (inactive) | Cn1c(SCC(=O)NC2CCCCC2)nnc1-c1cc2cc(Cl)ccc2o1
-4% (inactive) | CCOc1ccccc1NCc1cc(=O)oc2cc(C)c(O)cc12
-3% (inactive) | COc1cc(OC)cc(N(C(=O)C2COc3ccccc3O2)C(C(=O)NC2CCCCC2)c2ccc(O)cc2)c1 (centres undefined)
